A word on the ED50: it is the dose at which the effect has come halfway, by size or by number of responders. The low end stands for greater potency, the high end for weaker potency.

The values below come from patent US5294716A, “Chemical process for making angiotesin II antagonist compounds” (Imperial Chemical Industries PLC, priority 1991, dated 1994).

The target of test [1] is T1, AII receptors (guinea pig adrenal gland cell surface membranes) (Cavia porcellus, UniProt Q9WV26).
T1 construct: from tissue; host or cells: guinea pig adrenal gland, cell surface membrane fraction
T1 sequence (Q9WV26 1-359): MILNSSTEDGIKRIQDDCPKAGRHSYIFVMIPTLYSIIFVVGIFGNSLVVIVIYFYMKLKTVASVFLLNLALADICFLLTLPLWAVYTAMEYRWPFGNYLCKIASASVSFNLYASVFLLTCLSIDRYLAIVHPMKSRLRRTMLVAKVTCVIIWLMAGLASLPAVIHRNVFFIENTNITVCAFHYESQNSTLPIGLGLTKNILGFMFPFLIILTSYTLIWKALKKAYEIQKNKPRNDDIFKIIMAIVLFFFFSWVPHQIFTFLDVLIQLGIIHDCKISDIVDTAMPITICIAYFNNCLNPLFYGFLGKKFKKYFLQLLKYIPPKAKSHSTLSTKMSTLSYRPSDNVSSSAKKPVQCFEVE
Kind of test: Test A: displacement of radiolabelled AII binding to cell surface membrane fraction (guinea pig adrenal gland). As to the method: The antagonism of one or more of the physiological actions of AII and, in particular, the antagonism of the interaction of AII with the receptors which mediate its effects on a target tissue, may be assessed using one or more of the following, routine laboratory procedures: Test A: This in vitro procedure involves the incubation of the test compound initially at a concentration of 100 micromolar (or less) in a buffered mixture containing fixed concentrations of radiolabelled AII and a cell surface membrane fraction prepared from a suitable angiotensin target tissue. In this test, the source of cell surface membranes is the guinea pig adrenal gland which is well known to respond to AII. Interaction of the radiolabelled AII with its receptors (assessed as radiolabel bound to the particulate membrane fraction following removal of unbound radiolabel by a rapid filtration procedure such as is standard in such studies) is antagonized by compounds which also bind to the membrane receptor sites and the degree of antagonism (observed in the test as displacement of membrane-bound radioactivity) is determined readily by comparing the receptor-bound radioactivity in the presence of the test compound at the specified test concentration with a control value determined in the absence of the test compound. […]

Test [2] deals with angiotensin II-induced pressor responses. Kind of test: Test C: in vivo antagonism of angiotensin II-induced pressor responses in terminally-anaesthetised or conscious rats. The conditions noted are these: Rattus norvegicus, iv, i.v. administration. From the text: The antagonism of one or more of the physiological actions of AII and, in particular, the antagonism of the interaction of AII with the receptors which mediate its effects on a target tissue, may be assessed using one or more of the following, routine laboratory procedures: Test C: This in vivo test involves using terminally-anaesthetised or conscious rats in which an arterial catheter has been implanted under anaesthesia for the measurement of changes in blood pressure. The AII antagonistic effects of the test compound following oral or parenteral administration, are assessed against angiotensin II-induced pressor responses. To ensure that the effect is specific, the effect of the test compound on vasopressin-induced pressor responses may also be determined in the same preparation.

pIC50: −log10 of the molar value. Where a name gives a salt, the structure may show the parent alone. Read-outs that look alike come from different tables or passages of the source.

On to `Cc1cc(OCc2ccc(-c3ccccc3-c3nnn[nH]3)cc2)c2ccccc2n1.Cl` [2-methyl-4-[(2'-(1H-tetrazol-5-yl)biphenyl-4-yl)methoxy]quinoline hydrochloride], for which, in test [1] (average, read-out: IC50 (concentration for 50% displacement of radiolabelled AII binding), average), the pIC50 is 7.77. Moreover, in test [2], the ED50 stood at 0.5 mg/kg.

Turning to `Cc1cc(OCc2ccc(-c3ccccc3-c3nn[nH]n3)cc2)c2c(n1)CCCC2` [2-methyl-5,6,7,8-tetrahydro-4-[(2'-(1H-tetrazol-5-yl)methoxy]quinoline hydrochloride], the pIC50 in test [1] (read-out: IC50 (concentration for 50% displacement of radiolabelled AII binding)) is 7.52. In test [2], this molecule registered a 50% effective dose (ED50) of 0.28 mg/kg.
